{"source": "ChEMBL document CHEMBL1138163", "about": "“Potent 2-[(pyrimidin-4-yl)amine}-1,3-thiazole-5-carbonitrile-based inhibitors of VEGFR-2 (KDR) kinase” (Bioorg Med Chem Lett, 2006)", "key": {"[1]": {"biological_target": "Voltage-gated inwardly rectifying potassium channel KCNH2 (Homo sapiens, UniProt Q12809)", "sequence (Q12809 whole entry)": "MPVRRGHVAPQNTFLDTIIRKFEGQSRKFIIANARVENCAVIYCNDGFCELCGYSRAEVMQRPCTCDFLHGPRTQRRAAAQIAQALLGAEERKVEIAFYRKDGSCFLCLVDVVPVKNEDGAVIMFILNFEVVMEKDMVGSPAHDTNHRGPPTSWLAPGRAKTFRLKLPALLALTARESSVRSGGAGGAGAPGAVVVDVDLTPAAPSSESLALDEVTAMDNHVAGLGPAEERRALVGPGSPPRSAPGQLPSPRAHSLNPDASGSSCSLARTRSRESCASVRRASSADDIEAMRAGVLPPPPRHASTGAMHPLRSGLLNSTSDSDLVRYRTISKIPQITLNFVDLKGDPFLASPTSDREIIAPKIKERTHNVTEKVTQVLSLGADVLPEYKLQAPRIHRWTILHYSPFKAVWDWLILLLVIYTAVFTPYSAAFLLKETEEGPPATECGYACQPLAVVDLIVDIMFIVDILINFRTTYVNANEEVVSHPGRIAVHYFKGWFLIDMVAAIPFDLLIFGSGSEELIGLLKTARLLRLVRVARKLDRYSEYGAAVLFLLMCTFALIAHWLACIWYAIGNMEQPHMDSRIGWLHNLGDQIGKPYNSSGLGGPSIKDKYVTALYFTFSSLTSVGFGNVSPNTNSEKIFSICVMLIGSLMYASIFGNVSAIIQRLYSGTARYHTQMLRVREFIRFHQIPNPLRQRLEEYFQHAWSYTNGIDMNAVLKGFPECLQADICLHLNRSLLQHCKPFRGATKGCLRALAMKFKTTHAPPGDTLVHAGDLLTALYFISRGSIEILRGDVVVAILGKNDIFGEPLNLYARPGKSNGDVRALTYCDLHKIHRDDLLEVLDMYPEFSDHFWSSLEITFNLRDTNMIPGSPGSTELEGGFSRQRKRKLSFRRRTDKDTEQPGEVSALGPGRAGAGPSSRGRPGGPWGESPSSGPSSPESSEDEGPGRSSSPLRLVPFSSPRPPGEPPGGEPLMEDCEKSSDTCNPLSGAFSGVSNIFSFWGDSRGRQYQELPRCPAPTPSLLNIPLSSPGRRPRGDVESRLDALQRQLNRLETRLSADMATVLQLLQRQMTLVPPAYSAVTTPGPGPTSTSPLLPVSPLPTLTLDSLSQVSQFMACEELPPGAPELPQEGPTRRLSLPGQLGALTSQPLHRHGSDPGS", "test": "Displacement of [3H]dofetilide from human ERG"}, "Canis familiaris": {"tested_on": "Canis familiaris", "test": "AUC in Beagle dog at 0.25 mg/kg, iv", "type": "ADME, organism-based, Canis lupus familiaris, Plasma", "parameters": "dose 0.25 mg/kg, route intravenous", "settings": "in vivo"}, "[2]": {"test": "Volume of distribution in Beagle dog at 0.25 mg/kg, iv", "type": "ADME, organism-based, Canis lupus familiaris", "parameters": "dose 0.25 mg/kg, route intravenous", "settings": "in vivo, read-out: Vdss"}, "[3]": {"test": "Half life in Beagle dog at 0.25 mg/kg, iv", "type": "ADME, organism-based, Canis lupus familiaris", "parameters": "dose 0.25 mg/kg, route intravenous", "settings": "in vivo"}, "[4]": {"test": "Clearance in dog at 1 mg/kg, iv and 1 mg/kg, po", "type": "ADME, organism-based, Canis lupus familiaris", "settings": "in vivo"}, "[5]": {"test": "Volume of distribution in dog at 1 mg/kg, iv and 1 mg/kg, po", "type": "ADME, organism-based, Canis lupus familiaris", "settings": "in vivo, read-out: Vdss"}, "[6]": {"test": "Oral bioavailability in dog at 1 mg/kg, po", "type": "ADME, organism-based, Canis lupus familiaris", "settings": "in vivo"}, "[7]": {"test": "Clearance in rat at 2 mg/kg, iv and 10 mg/kg, po", "type": "ADME, organism-based", "settings": "in vivo"}, "[8]": {"test": "Volume of distribution in rat at 2 mg/kg, iv and 10 mg/kg, po", "type": "ADME, organism-based", "settings": "in vivo, read-out: Vdss"}, "[9]": {"test": "Oral bioavailability in rat at 10 mg/kg, po", "type": "ADME, organism-based", "settings": "in vivo"}, "[10]": {"test": "Clearance in rhesus monkey at 1 mg/kg, iv and 1 mg/kg, po", "type": "ADME, organism-based, Macaca mulatta", "settings": "in vivo"}, "[11]": {"test": "Volume of distribution in rhesus monkey at 1 mg/kg, iv and 1 mg/kg, po", "type": "ADME, organism-based, Macaca mulatta", "settings": "in vivo, read-out: Vdss"}, "[12]": {"test": "Oral bioavailability in rhesus monkey at 1 mg/kg, po", "type": "ADME, organism-based, Macaca mulatta", "settings": "in vivo"}}, "data": [{"smiles": "N#Cc1cnc(Nc2ccncn2)s1", "values": [{"measurement": "Activity", "setting": "[1]", "result": 2.932, "unit": "µM"}]}, {"smiles": "N#Cc1cnc(Nc2ccnc(N)n2)s1", "values": [{"measurement": "Activity", "setting": "[1]", "result": "> 10", "unit": "µM"}]}, {"smiles": "CC(=O)N1CCN(c2cc(Nc3ncc(C#N)s3)ncn2)CC1", "values": [{"measurement": "Activity", "setting": "[1]", "result": 3.291, "unit": "µM"}]}, {"smiles": "N#Cc1cnc(Nc2cc(N3CCCNCC3)ncn2)s1", "values": [{"measurement": "Activity", "setting": "[1]", "result": 2.951, "unit": "µM"}]}, {"smiles": "N#Cc1cnc(Nc2cc(N3CCCC(N)CC3)ncn2)s1", "note": "(stereo not given)", "values": [{"measurement": "Activity", "setting": "[1]", "result": 1.012, "unit": "µM"}]}, {"smiles": "N#Cc1cnc(Nc2cc(N3CCN(CCN4CCOCC4)CC3)ncn2)s1", "values": [{"measurement": "Activity", "setting": "[1]", "result": 5, "unit": "µM"}, {"measurement": "AUC", "setting": "Canis familiaris", "result": 10.2, "unit": "µM·h"}, {"measurement": "Vd", "setting": "[2]", "result": 2.4, "unit": "L/kg"}, {"measurement": "half-life", "setting": "[3]", "result": 10.5, "unit": "h"}, {"measurement": "clearance", "setting": "[4]", "result": 4.11, "unit": "mL/min/kg"}, {"measurement": "Vd", "setting": "[5]", "result": 2.72, "unit": "L/kg"}, {"measurement": "bioavailability", "setting": "[6]", "result": 51, "unit": "%"}, {"measurement": "clearance", "setting": "[7]", "result": 38.7, "unit": "mL/min/kg"}, {"measurement": "Vd", "setting": "[8]", "result": 3.32, "unit": "L/kg"}, {"measurement": "bioavailability", "setting": "[9]", "result": "> 99", "unit": "%"}, {"measurement": "clearance", "setting": "[10]", "result": 22.7, "unit": "mL/min/kg"}, {"measurement": "Vd", "setting": "[11]", "result": 10.1, "unit": "L/kg"}, {"measurement": "bioavailability", "setting": "[12]", "result": 54, "unit": "%"}]}, {"smiles": "N#Cc1cnc(Nc2cc(N3CCN(CCCN4CCOCC4)CC3)ncn2)s1", "values": [{"measurement": "Activity", "setting": "[1]", "result": 4.003, "unit": "µM"}, {"measurement": "AUC", "setting": "Canis familiaris", "result": 3.08, "unit": "µM·h"}, {"measurement": "Vd", "setting": "[2]", "result": 14.8, "unit": "L/kg"}, {"measurement": "half-life", "setting": "[3]", "result": 7.97, "unit": "h"}]}, {"smiles": "CN1CCN(c2cc(Nc3ncc(C#N)s3)ncn2)CC1", "values": [{"measurement": "Activity", "setting": "[1]", "result": 0.923, "unit": "µM"}]}, {"smiles": "COCCN1CCN(c2cc(Nc3ncc(C#N)s3)ncn2)CC1", "values": [{"measurement": "AUC", "setting": "Canis familiaris", "result": 4.81, "unit": "µM·h"}, {"measurement": "Vd", "setting": "[2]", "result": 1.31, "unit": "L/kg"}, {"measurement": "half-life", "setting": "[3]", "result": 2, "unit": "h"}]}, {"smiles": "N#Cc1cnc(Nc2cc(N3CCN(CCN4CCCC4)CC3)ncn2)s1", "values": [{"measurement": "Activity", "setting": "[1]", "result": 0.383, "unit": "µM"}, {"measurement": "AUC", "setting": "Canis familiaris", "result": 6.07, "unit": "µM·h"}, {"measurement": "Vd", "setting": "[2]", "result": 14.1, "unit": "L/kg"}, {"measurement": "half-life", "setting": "[3]", "result": 23, "unit": "h"}]}, {"smiles": "N#Cc1cnc(Nc2cc(N3CCC(N)CC3)ncn2)s1", "values": [{"measurement": "Activity", "setting": "[1]", "result": 6.643, "unit": "µM"}, {"measurement": "AUC", "setting": "Canis familiaris", "result": 1.91, "unit": "µM·h"}, {"measurement": "Vd", "setting": "[2]", "result": 3.65, "unit": "L/kg"}, {"measurement": "half-life", "setting": "[3]", "result": 1.34, "unit": "h"}]}, {"smiles": "N#Cc1cnc(Nc2cc(N)ncn2)s1", "values": [{"measurement": "Activity", "setting": "[1]", "result": "> 10", "unit": "µM"}]}]}
